Assay results taken from PubChem BioAssay AID248 (DTP/NCI, 2004).
Toxic doses and inconclusive results are not listed. Rule as the data show it: active = T/C of 150% or more; inactive = T/C below 125%.

Tested on: L1210 leukemia ip in BDF1 mice, survival T/C
Assay: NCI In Vivo Anticancer Drug Screen. Data for tumor model L1210 Leukemia (intraperitoneal) in B6D2F1 (BDF1) mice
Settings: endpoint: mean survival time, higher = longer survival
Summary of the method: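 Antitumor effect is assessed in tumor-bearing animals. Survival in the compound arm is compared with a vehicle-dosed control arm and expressed as their quotient.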

[1] = dose: 100.0 mg/kg/injection, schedule: Q04DX003 (ip), vehicle: Klucel (hydroxypropylcellulose) (HPC)
[2] = dose: 200.0 mg/kg/injection, schedule: Q04DX003 (ip), vehicle: Klucel (hydroxypropylcellulose) (HPC)
[3] = dose: 400.0 mg/kg/injection, schedule: Q04DX003 (ip), vehicle: Klucel (hydroxypropylcellulose) (HPC)
[4] = dose: 100.0 mg/kg/injection, schedule: Q01DX009 (ip), vehicle: saline with Tween-80
[5] = dose: 200.0 mg/kg/injection, schedule: Q01DX009 (ip), vehicle: saline with Tween-80
[6] = dose: 400.0 mg/kg/injection, schedule: Q01DX009 (ip), vehicle: saline with Tween-80
[7] = dose: 50.0 mg/kg/injection, schedule: Q01DX001 (ip), vehicle: saline
[8] = dose: 100.0 mg/kg/injection, schedule: Q01DX001 (ip), vehicle: saline
[9] = dose: 200.0 mg/kg/injection, schedule: Q01DX001 (ip), vehicle: saline
[10] = dose: 100.0 mg/kg/injection, schedule: Q01DX009 (ip), vehicle: saline
[11] = dose: 400.0 mg/kg/injection, schedule: Q01DX009 (ip), vehicle: saline
[12] = dose: 100.0 mg/kg/injection, schedule: Q01DX009 (ip), vehicle: Klucel (hydroxypropylcellulose) (HPC)
[13] = dose: 200.0 mg/kg/injection, schedule: Q01DX009 (ip), vehicle: Klucel (hydroxypropylcellulose) (HPC)
[14] = dose: 400.0 mg/kg/injection, schedule: Q01DX009 (ip), vehicle: Klucel (hydroxypropylcellulose) (HPC)
[15] = dose: 100.0 mg/kg/injection, schedule: Q04DX003 (ip), vehicle: saline with Tween-80
[16] = dose: 200.0 mg/kg/injection, schedule: Q04DX003 (ip), vehicle: saline with Tween-80
[17] = dose: 400.0 mg/kg/injection, schedule: Q04DX003 (ip), vehicle: saline with Tween-80

Measured: T/C

COC(=O)Nc1ccc2nc(NC(=O)OC)[nH]c2c1
inactive: dose: 20.0 mg/kg/injection, schedule: Q01DX009 (ip), vehicle: other 97 % of control | dose: 40.0 mg/kg/injection, schedule: Q01DX009 (ip), vehicle: other 101 % of control | dose: 80.0 mg/kg/injection, schedule: Q01DX009 (ip), vehicle: other 104 % of control

O=C(Nc1ccc(Cl)cc1)C(c1ccccc1)c1ccccc1
inactive: dose: 100.0 mg/kg/injection, schedule: Q04DX002 (ip), vehicle: saline with Tween-80 100 % of control | dose: 200.0 mg/kg/injection, schedule: Q04DX002 (ip), vehicle: saline with Tween-80 110 % of control | dose: 400.0 mg/kg/injection, schedule: Q04DX002 (ip), vehicle: saline with Tween-80 100 % of control

CCOC(=O)C(C)Oc1ccc([N+](=O)[O-])cc1[N+](=O)[O-] (stereo not drawn)
inactive: [1] 95 % of control | [2] 90 % of control | [3] 98 % of control

Cn1c(=O)c(=O)n(C)c2cc(Cl)c(Cl)cc21
inactive: dose: 100.0 mg/kg/injection, schedule: Q01DX001 (ip), vehicle: carboxymethylcellulose (CMC) 94 % of control | dose: 200.0 mg/kg/injection, schedule: Q01DX001 (ip), vehicle: carboxymethylcellulose (CMC) 105 % of control

CN(C)C(=O)Nc1cccc(OC(=O)NC(C)(C)C)c1
inactive: [4] 93 % of control | [5] 87 % of control | [6] 94 % of control

COc1ccc2c(c1)CCC1=C2CCC(C)(C(=O)O)N1 (stereo not drawn)
inactive: [4] 98 % of control | [5] 95 % of control | [6] 87 % of control

CC1(C)N=C(N)N=C(N)N1c1ccc(CCCCc2ccccc2Cl)cc1
inactive: dose: 12.5 mg/kg/injection, schedule: Q01DX001 (ip), vehicle: Klucel (hydroxypropylcellulose) (HPC) 95 % of control | dose: 25.0 mg/kg/injection, schedule: Q01DX001 (ip), vehicle: Klucel (hydroxypropylcellulose) (HPC) 98 % of control

O=C(CCCCCCC(=O)C[n+]1ccccc1CO)C[n+]1ccccc1CO
inactive: dose: 12.5 mg/kg/injection, schedule: Q04DX003 (ip), vehicle: saline 101 % of control

CCOP(=S)(S)OCC.[Pd]
inactive: dose: 12.5 mg/kg/injection, schedule: Q01DX009 (ip), vehicle: other 95 % of control | dose: 25.0 mg/kg/injection, schedule: Q01DX009 (ip), vehicle: other 95 % of control | [7] 96 % of control | [8] 100 % of control | [9] 100 % of control | dose: 400.0 mg/kg/injection, schedule: Q01DX001 (ip), vehicle: saline 100 % of control

CC(C)(Cc1ccccc1)NC(=O)NCCCl
inactive: [10] 97 % of control | dose: 100.0 mg/kg/injection, schedule: Q04DX002 (ip), vehicle: saline 93 % of control | dose: 200.0 mg/kg/injection, schedule: Q01DX009 (ip), vehicle: saline 91 % of control | dose: 200.0 mg/kg/injection, schedule: Q04DX002 (ip), vehicle: saline 96 % of control | [11] 108 % of control | dose: 400.0 mg/kg/injection, schedule: Q04DX002 (ip), vehicle: saline 96 % of control

CC1C2CCC(C2)C1CO (stereo not drawn)
inactive: dose: 100.0 mg/kg/injection, schedule: Q04DX003 (ip), vehicle: saline 97 % of control | dose: 200.0 mg/kg/injection, schedule: Q04DX003 (ip), vehicle: saline 101 % of control | dose: 400.0 mg/kg/injection, schedule: Q04DX003 (ip), vehicle: saline 101 % of control

COc1cc2c(cc1OC)C(=O)CN(S(=O)(=O)c1ccc(C)cc1)CC2
inactive: dose: 50.0 mg/kg/injection, schedule: Q01DX009 (ip), vehicle: saline sonified 101 % of control | dose: 100.0 mg/kg/injection, schedule: Q01DX009 (ip), vehicle: saline sonified 87 % of control | [1] 96 % of control | dose: 200.0 mg/kg/injection, schedule: Q01DX009 (ip), vehicle: saline sonified 89 % of control | [2] 96 % of control | [3] 97 % of control

CCOC(=O)C1C(=O)CC(=O)C(C(=O)OCC)C1c1ccc(O)cc1 (stereo not drawn)
inactive: [12] 95 % of control | [1] 97 % of control | [13] 98 % of control | [2] 104 % of control | [14] 97 % of control | [3] 107 % of control

CC(=O)Nc1ccccc1C(C#N)Cc1ccccc1 (stereo not drawn)
inactive: dose: 75.0 mg/kg/injection, schedule: Q01DX001 (ip), vehicle: other 96 % of control | dose: 150.0 mg/kg/injection, schedule: Q01DX001 (ip), vehicle: other 101 % of control | dose: 300.0 mg/kg/injection, schedule: Q01DX001 (ip), vehicle: other 101 % of control

Cc1cccc(C)c1NC(=O)Nc1ccc(Cl)c(Cl)c1
inactive: [12] 97 % of control | [1] 95 % of control | [13] 94 % of control | [2] 86 % of control | [14] 94 % of control | [3] 91 % of control

CCN(CC)CCCC#N
inactive: [7] 100 % of control | [8] 105 % of control | [9] 102 % of control

CN(C)/C=N\c1ncnc2c1ccn2C1OC(CO)C(O)C1O (stereo not drawn)
inactive: dose: 1.56 mg/kg/injection, schedule: Q01DX005 (ip), vehicle: saline 104 % of control | dose: 1.56 mg/kg/injection, schedule: Q01DX009 (ip), vehicle: saline 109 % of control | dose: 3.12 mg/kg/injection, schedule: Q01DX005 (ip), vehicle: saline 116 % of control | dose: 3.12 mg/kg/injection, schedule: Q01DX009 (ip), vehicle: saline 114 % of control | dose: 6.25 mg/kg/injection, schedule: Q01DX005 (ip), vehicle: saline 93 % of control | dose: 6.25 mg/kg/injection, schedule: Q01DX009 (ip), vehicle: saline 88 % of control

CC1=C2CC3CCC(C)C2(CC1)C3(C)C (stereo not drawn)
inactive: [10] 88 % of control | [11] 87 % of control

CCCCOP(=S)(OCCCC)[S][Hg][c]1ccco1
inactive: dose: 25.0 mg/kg/injection, schedule: Q04DX002 (ip), vehicle: alcohol 97 % of control | dose: 50.0 mg/kg/injection, schedule: Q04DX002 (ip), vehicle: alcohol 97 % of control

Nc1ccc(-c2ccc(-n3cccc3)cc2)cc1
inactive: dose: 25.0 mg/kg/injection, schedule: Q01DX001 (ip), vehicle: saline 100 % of control | [7] 96 % of control | [8] 109 % of control

CCOC(=O)C1=C(C)NC(C)=C(C(=O)OCC)C1c1ccc(Cl)cc1
inactive: [15] 98 % of control | [16] 93 % of control | [17] 88 % of control

CC(C)c1ccc2c(c1)CC[C@H]1[C@](C)(C(=O)O)CCC[C@]21C
inactive: dose: 100.0 mg/kg/injection, schedule: Q01DX001 (ip), vehicle: saline with Tween-80 101 % of control | dose: 200.0 mg/kg/injection, schedule: Q01DX001 (ip), vehicle: saline with Tween-80 105 % of control | dose: 400.0 mg/kg/injection, schedule: Q01DX001 (ip), vehicle: saline with Tween-80 105 % of control

Cc1cc(I)c(C)s1
inactive: [15] 96 % of control | [16] 96 % of control | [17] 98 % of control

O=C(NCCCl)NC1c2cc(Cl)ccc2-c2c(Cl)cc(Cl)cc21 (stereo not drawn)
inactive: dose: 100.0 mg/kg/injection, schedule: Q01DX001 (ip), vehicle: Klucel (hydroxypropylcellulose) (HPC) 92 % of control | [12] 87 % of control | [1] 94 % of control | dose: 200.0 mg/kg/injection, schedule: Q01DX001 (ip), vehicle: Klucel (hydroxypropylcellulose) (HPC) 96 % of control | [13] 90 % of control | [2] 98 % of control | dose: 400.0 mg/kg/injection, schedule: Q01DX001 (ip), vehicle: Klucel (hydroxypropylcellulose) (HPC) 92 % of control | [14] 95 % of control | [3] 98 % of control

Cc1cc(C)c(C(O)C(=O)O)c(C)c1 (stereo not drawn)
inactive: dose: 75.0 mg/kg/injection, schedule: Q01DX001 (ip), vehicle: saline 108 % of control | dose: 150.0 mg/kg/injection, schedule: Q01DX001 (ip), vehicle: saline 97 % of control | dose: 300.0 mg/kg/injection, schedule: Q01DX001 (ip), vehicle: saline 101 % of control
